From paper PMC4434909, “In vitro properties of designed antimicrobial peptides that exhibit potent antipneumococcal activity and produces synergism in combination with penicillin” (Scientific Reports, 2015)
Where two headings read alike, the source gives them in different places. Where no end group is shown, it is not given here.

How the values were obtained:
[1] = tested on: penicillin-resistant Streptococcus pneumoniae (PRSP); assay type: cell-based; conditions: for MIC, PRSP: MIC range over 20 PRSP isolates, CLSI broth microdilution, CAMHB with 5% laked horse blood, 18–24 hrs 37°C 5% CO2, peptides 1.96–250 μg/ml, three independent experiments; for EP %, PRSP: effective percentage: proportion of isolates inhibited within the MIC range
Source text: (§1) All bacterial strains were obtained from Department of Medical Microbiology, University of Malaya. Clinical isolates were previously obtained from University of Malaya Medical Centre and maintained in the laboratory. Sheep blood agar was used for pneumococcal cultivation purpose. Nutrient agar was used for cultivating E. coli ATCC 25922, S. aureus ATCC 25923, and P. aeruginosa ATCC 15442, Acinetobacter baumanii ATCC 15308, and one clinical isolate for each MRSA, E. cloacae, Citrobacter spp., and K. pneumoniae. For antimicrobial testing, Mueller-Hinton agar (MHA) and cationically-adjusted MHB (CAMHB) were prepared according to the Clinical and Laboratory Standard Institute guidelines. MHA for S. pneumoniae was supplemented with 5% (v/v) defibrinated sheep blood and 5% laked horse blood for CAMHB. All bacterial cultures were stored in multiple vials in brain heart infusion broth supplemented with 10% (v/v) glycerol at −80°C to avoid repeated freeze-thawed cycles on the cells. All freeze-stocked strains were passaged twice prior to experimentation.
(§2) Procedures were performed to determine the MIC of peptides according to the CLSI guidelines[21] against 60 pneumococcal isolates which consisted of 20 isolates each for PRSP, PISP, and PSSP. Strains were grown for 18–24 hrs at 37°C under 5% CO2. Direct suspension of the colonies were made in CAMHB and adjusted to OD625 0.08–0.1 which corresponds to 1 ~ 2 × 10^8 CFU/ml followed by serial ten-fold dilutions to give 1 × 10^6 CFU/ml. Fifty microliters of bacterial suspension was then aliquoted to 96-well round bottom microtiter plates containing equal volume of serially diluted peptides to give final concentrations of peptides encompassing the range of 1.96–250 μg/ml. […] The plates were incubated for 18–24 hrs at 37°C under 5% CO2. MIC was read as the concentration of peptide producing complete inhibition on the visible growth of the test organism. Results were pooled from three independent experiments. MIC range was defined as the range of concentrations where the peptides produce detectable antimicrobial activity. Effective percentage (EP) was the proportion of pneumococcal isolates inhibited within the MIC range. Since the isolates tested were obtained prior to 2008 where major revision in antibiotic susceptibility breakpoints were introduced, thus the pneumococci were defined according to the PEN susceptibility breakpoint (prior 2008) which corresponds to the PEN (oral penicillin V) breakpoint of the revised criteria.

[2] = tested on: E. coli ATCC 25922; assay type: cell-based
Source text: as §1, §2
(§3) The broad spectrum antibacterial activity of the peptides against a panel of eight clinically important bacteria was also determined, this includes S. aureus ATCC 25923, E. coli ATCC 25922, P. aeruginosa ATCC 15442, A. baumanii ATCC 15308, and one clinical isolate each for MRSA, E. cloacae, Citrobacter spp., and K. pneumoniae.

[3] = tested on: P. aeruginosa ATCC 15442; assay type: cell-based
Source text: as §1, §2, §3

[4] = tested on: Citrobacter spp.; assay type: cell-based; conditions: Gram-negative, clinical isolate; broth microdilution, CAMHB, peptides 1.96–250 μg/ml
Source text: as §1, §2, §3

[5] = tested on: PISP; assay type: cell-based, Streptococcus pneumoniae
Description: (§4) This assay was performed to evaluate the killing kinetics of peptides. One PRSP, PISP, and PSSP isolate were each grown and prepared to 5 × 10^6 CFU/ml. Each isolate in CAMHB was challenged with peptides at two times the respective MIC values. At the indicated time intervals (0, 30, 60, 120, 150, 180, 210, and 240 min; “0” indicate pretreatment), 10 μl of suspension was removed and immediately serially diluted in cold phosphate-buffered saline to arrest further reaction before spread-plated on MHA to obtain viable colony counts. The percentage cell recovered was calculated by dividing the surviving CFU of the treated cells over the surviving CFU of the untreated control cells at the respective time points. Results were pooled from three independent experiments and expressed as mean ± standard deviation (SD).

[6] = tested on: PRSP, PISP, and PSSP; assay type: cell-based, Streptococcus pneumoniae; conditions: for CFU recovered (viability), all three groups of pneumococci: 5 × 10^6 CFU/ml in CAMHB, plate count, relative to untreated control
Description: as §4

[7] = tested on: PRSP; assay type: cell-based, Streptococcus pneumoniae
Description: as §4

[8] = tested on: PSSP; assay type: cell-based, Streptococcus pneumoniae
Description: as §4

[9] = tested on: A. baumanii ATCC 15308; assay type: cell-based, Acinetobacter baumanii
Source text: as §1, §2, §3

[10] = tested on: S. pneumoniae; assay type: cell-based, Streptococcus pneumoniae; conditions: for Overall EP: proportion of the 60 pneumococcal isolates inhibited within the MIC range
Source text: as §1, §2

[11] = tested on: penicillin-susceptible S. pneumoniae (PSSP); assay type: cell-based, Streptococcus pneumoniae; conditions: for MIC, PSSP: MIC range over 20 PSSP isolates, CLSI broth microdilution, CAMHB with 5% laked horse blood, 18–24 hrs 37°C 5% CO2, peptides 1.96–250 μg/ml, three independent experiments; for EP %, PSSP: effective percentage: proportion of isolates inhibited within the MIC range
Source text: as §1, §2

[12] = tested on: penicillin-intermediate S. pneumoniae (PISP); assay type: cell-based, Streptococcus pneumoniae; conditions: for MIC, PISP: MIC range over 20 PISP isolates, CLSI broth microdilution, CAMHB with 5% laked horse blood, 18–24 hrs 37°C 5% CO2, peptides 1.96–250 μg/ml, three independent experiments; for EP %, PISP: effective percentage: proportion of isolates inhibited within the MIC range
Source text: as §1, §2

[13] = 30 min post treatment, 2× MIC, 5 × 10^6 CFU/ml in CAMHB, plate count, relative to untreated control
[14] = Gram-negative, broth microdilution, CAMHB, peptides 1.96–250 μg/ml
[15] = average of PRSP, PISP and PSSP, 30 min post treatment, 2× MIC

For GLFDIWAWWRWRR-NH2 [DM2], the “MIC, PRSP” value [1] was 15.63 to 250 µg/mL, the “EP %, PRSP” value [1] was “(100.0) %” and the “MIC, E. coli ATCC 25922” value ([2]; ATCC 25922) was 250 µg/mL. The “MIC, P. aeruginosa ATCC 15442” value ([3]; ATCC 15442) was >250 µg/mL, the “MIC, Citrobacter spp.” value [4] was 62.5 µg/mL and the “difference in killing kinetics over PEN, PISP” value (from here on “difference … PISP”) [5]; 2 was 65.4%. The “CFU recovered, PISP” value [5, 13] was 12.4%, the “difference in killing kinetics over PEN, average” value (“difference … average” below) [6]; 2 was 61.3% and the “CFU recovered (viability), all three groups of pneumococci” value ([6]; 30 min post treatment, 2× MIC) was < 6.0%. For the same substance, the “difference in killing kinetics over PEN, PRSP” value (from here on “difference … PRSP”) [7]; 2 was 64.1%, the “CFU recovered, PRSP” value [7, 13] was “completely killed” and the “difference in killing kinetics over PEN, PSSP” value (“difference … PSSP” below) [8]; 2 was 54.4%. The “MIC, A. baumanii ATCC 15308” value ([9]; ATCC 15308) was 31.3 µg/mL, the “Overall MIC” value [10] was 7.81 to 250 µg/mL and the “Overall EP” value [10] was 100.0%. The “MIC, PSSP” value [11] was 15.63 to 250 µg/mL, the “EP %, PSSP” value [11] was “(100.0) %” and the “MIC, PISP” value [12] was 7.81 to 250 µg/mL. The “EP %, PISP” value [12] was “(100.0) %”.
In the case of GLFDIWKKLRWRR-NH2 [DM5], the “MIC, PRSP” value [1] is reported as 31.3 to 125 µg/mL, the “EP %, PRSP” value [1] is reported as “(100.0) %” and the “MIC, E. coli ATCC 25922” value ([2]; ATCC 25922) is reported as 31.3 µg/mL. The “MIC, P. aeruginosa ATCC 15442” value ([3]; ATCC 15442) was 31.3 µg/mL, the “MIC, Citrobacter spp.” value [4] was 31.3 µg/mL and the “difference … PISP” value [5]; 2 was 58.5%. The “difference … average” value [6]; 2 was 44.4%, the “difference … PRSP” value [7]; 2 was 38.1% and the “difference … PSSP” value [8]; 2 was 36.5%. For the same substance, the “MIC, A. baumanii ATCC 15308” value ([9]; ATCC 15308) was 31.3 µg/mL, the “Overall MIC” value [10] was 15.63 to 125 µg/mL and the “Overall EP” value [10] was 100.0%. For the same substance, the “MIC, PSSP” value [11] was 15.63 to 125 µg/mL, the “EP %, PSSP” value [11] was “(100.0) %” and the “MIC, PISP” value [12] was 15.63 to 125 µg/mL. For the same substance, the “EP %, PISP” value [12] was “(100.0) %”.
GLFDIWKKWRWRR-NH2 [DM4] was tested, and the “MIC, PRSP” value [1] was 31.3 to 125 µg/mL, the “EP %, PRSP” value [1] was “(100.0) %” and the “MIC, E. coli ATCC 25922” value [2, 14] was 62.5 µg/mL. The “MIC, P. aeruginosa ATCC 15442” value [3, 14] was 31.3 µg/mL, the “MIC, Citrobacter spp.” value [4] was 31.3 µg/mL and the “difference … PISP” value ([5]; 30 min post treatment, 2× MIC) was 57.8%. For the same substance, the “difference … average” value [6, 15] was 42.4%, the “difference … PRSP” value ([7]; 30 min post treatment, 2× MIC) was 39.0% and the “difference … PSSP” value ([8]; 30 min post treatment, 2× MIC) was 30.5%. The “MIC, A. baumanii ATCC 15308” value [9, 14] was 31.3 µg/mL, the “Overall MIC” value [10] was 15.63 to 125 µg/mL and the “Overall EP” value [10] was 100.0%. The “MIC, PSSP” value [11] was 15.63 to 125 µg/mL, the “EP %, PSSP” value [11] was “(100.0) %” and the “MIC, PISP” value [12] was 15.63 to 125 µg/mL. The “EP %, PISP” value [12] was “(100.0) %”.
With GLFDIWKWWRWRR-NH2 [DM3] the “MIC, PRSP” value [1] was 15.63 to 62.5 µg/mL, the “EP %, PRSP” value [1] was “(100.0) %” and the “MIC, E. coli ATCC 25922” value ([2]; ATCC 25922) was 62.5 µg/mL. The “MIC, P. aeruginosa ATCC 15442” value ([3]; ATCC 15442) was 125 µg/mL, the “MIC, Citrobacter spp.” value [4] was 15.63 µg/mL and the “difference … PISP” value [5]; 2 was 76.0%. The “difference … average” value [6]; 2 was 64.6%, the “CFU recovered (viability), all three groups of pneumococci” value ([6]; 30 min post treatment, 2× MIC) was < 6.0% and the “difference … PRSP” value [7]; 2 was 60.0%. The “difference … PSSP” value [8]; 2 was 57.7%, the “MIC, A. baumanii ATCC 15308” value ([9]; ATCC 15308) was 15.63 µg/mL and the “Overall MIC” value [10] was 7.81 to 62.5 µg/mL. The “Overall EP” value [10] was 100.0%, the “MIC, PSSP” value [11] was 7.81 to 62.5 µg/mL and the “EP %, PSSP” value [11] was “(100.0) %”. For the same substance, the “MIC, PISP” value [12] was 7.81 to 62.5 µg/mL and the “EP %, PISP” value [12] was “(100.0) %”.
With GLFDKWAWWRWRR-NH2 [DM1] the “MIC, PRSP” value [1] was 31.3 to 125 µg/mL, the “EP %, PRSP” value [1] was “(100.0) %” and the “MIC, E. coli ATCC 25922” value [2, 14] was 62.5 µg/mL. The “MIC, P. aeruginosa ATCC 15442” value [3, 14] was 125 µg/mL, the “MIC, Citrobacter spp.” value [4] was 31.3 µg/mL and the “difference … PISP” value ([5]; 30 min post treatment, 2× MIC) was 54.2%. For the same substance, the “difference … average” value [6, 15] was 48.5%, the “difference … PRSP” value ([7]; 30 min post treatment, 2× MIC) was 52.9% and the “difference … PSSP” value ([8]; 30 min post treatment, 2× MIC) was 38.4%. The “MIC, A. baumanii ATCC 15308” value [9, 14] was 62.5 µg/mL, the “Overall MIC” value [10] was 31.3 to 250 µg/mL and the “Overall EP” value [10] was 100.0%. The “MIC, PSSP” value [11] was 62.5 to 250 µg/mL, the “EP %, PSSP” value [11] was “(100.0) %” and the “MIC, PISP” value [12] was 31.3 to 125 µg/mL. The “EP %, PISP” value [12] was “(100.0) %”.
